The source made the active and inactive calls.
What was measured:
[1] = NIH-3T3 fibroblast cytotoxicity, dose response, cytotoxicity control, cell-based, fluorescence, Alamar Blue, secondary assay (AID 2327); assay type: functional;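 note: NIH-3T3 mouse fibroblasts cultured with fluconazole at 8 µg/mL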
HEK293 [2] = experiment: inhibition of NOD1-driven NF-kB reporter – cell-based, luminescence, uHTS, primary screen (AID 1578); assay type: functional; conditions: Homo sapiens
[3] = test system: Streptococcus sp. 'group A'; experiment: Streptococcus pyogenes SK(-)GAS viability under kanamycin – luminescence, BacTiterGlo, confirmation, counter-screen for streptokinase expression inhibitor project, dose response (AID 1900); assay type: functional, organism-based
HEK293 [4] = experiment: cells; assay type: functional, cell-based; conditions: Homo sapiens
Streptokinase A = biological target: T1, Streptokinase A (Streptococcus pyogenes serotype M1, UniProt P10520); experiment: viability-normalized secreted streptokinase activity reduction – plasminogen activation absorbance, OD405, dose response (AID 1914); assay type: functional, Streptococcus pyogenes M1 GAS;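 note: secreted streptokinase activity via plasminogen activation per viability signal from cell pellet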
T1 sequence (P10520 whole entry): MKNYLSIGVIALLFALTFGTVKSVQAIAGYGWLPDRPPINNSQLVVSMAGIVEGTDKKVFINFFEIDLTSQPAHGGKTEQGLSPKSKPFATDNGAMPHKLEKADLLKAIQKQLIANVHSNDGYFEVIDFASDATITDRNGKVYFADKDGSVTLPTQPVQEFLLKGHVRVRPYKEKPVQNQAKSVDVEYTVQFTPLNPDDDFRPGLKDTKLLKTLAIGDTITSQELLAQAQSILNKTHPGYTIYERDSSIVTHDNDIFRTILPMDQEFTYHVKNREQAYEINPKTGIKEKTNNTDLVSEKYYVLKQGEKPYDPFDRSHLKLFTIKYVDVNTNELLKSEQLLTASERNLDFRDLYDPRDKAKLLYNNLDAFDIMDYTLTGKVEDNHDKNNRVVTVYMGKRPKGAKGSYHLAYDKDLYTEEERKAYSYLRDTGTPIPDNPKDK

[5] = fluconazole-exposed Candida albicans growth modulators – fluorescence, retest, confirmation (AID 2467); assay type: functional, cell-based
HEK293 [6] = experiment: cells; assay type: functional, cell-based; conditions: Homo sapiens; remark: listed apart in the source
HEK293 [7] = experiment: NOD2 signaling inhibitors in MDP-stimulated cells, cell-based, uHTS, luminescence (AID 2001); assay type: functional; conditions: Homo sapiens
[8] = biological target: Serine/threonine-protein phosphatase (Candida dubliniensis (strain CD36 / CBS 7987 / NCPF 3949 / NRRLY-17841) (Yeast), UniProt B9W6M3); experiment: blockers of CaCl2-induced CDRE-lacZ signaling – S. cerevisiae, luminescence, secondary, dose response (AID 2388); assay type: functional, cell-based;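 note: yeast reporter cells carrying a calcineurin-responsive lacZ construct stimulated with calcium chloride; luminescent beta-galactosidase reporter signal in whole cells rather than isolated phosphatase activity; potency for inhibition where a drop in reporter signal means calcineurin blockade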
Streptococcus = experiment: GAS UMAA2166 growth inhibition – luminescence, BacTiterGlo, counter-screen for streptokinase expression inhibitor project, dose response (AID 1915); assay type: functional, organism-based;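 note: potency for reduction of bacterial viability or growth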
Tumor necrosis factor = Tumor necrosis factor (Homo sapiens, UniProt P01375); experiment: analog potency on TNFa NF-kB signaling – cell-based, revised, SAR follow-up (AID 2337); assay type: functional
[9] = biological target: Nucleotide-binding oligomerization domain-containing protein 1 (Homo sapiens, UniProt Q9Y239); experiment: blockers of NOD1 pathway activity – revised, SAR follow-up (AID 2333); assay type: functional
[10] = biological target: Nucleotide-binding oligomerization domain-containing protein 2 (Homo sapiens, UniProt Q9HC29); experiment: PubChem AID 2334; assay type: functional
[11] = biological target: ATP-dependent molecular chaperone HSP82 (Candida albicans (strain WO-1) (Yeast), UniProt C4YTQ8); experiment: steroid-induced GRE reporter decrease in yeast – S. cerevisiae, luminescence, Hsp90 inhibitor project, dose response (AID 2400); assay type: functional, cell-based;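 note: beta-galactosidase luminescence from glucocorticoid response element reporter as proxy for Hsp90 function; inhibitor potency where signal loss means Hsp90 inhibition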
[12] = biological target: T2, Carboxy-terminal domain RNA polymerase II polypeptide A small phosphatase 1 (Homo sapiens, UniProt Q9GZU7); experiment: CTDSP1 inhibitors, concentration-response, biochemical, absorbance readout, ultra-high-throughput screen actives (AID 540297); assay type: functional
T2 sequence (Q9GZU7 whole entry): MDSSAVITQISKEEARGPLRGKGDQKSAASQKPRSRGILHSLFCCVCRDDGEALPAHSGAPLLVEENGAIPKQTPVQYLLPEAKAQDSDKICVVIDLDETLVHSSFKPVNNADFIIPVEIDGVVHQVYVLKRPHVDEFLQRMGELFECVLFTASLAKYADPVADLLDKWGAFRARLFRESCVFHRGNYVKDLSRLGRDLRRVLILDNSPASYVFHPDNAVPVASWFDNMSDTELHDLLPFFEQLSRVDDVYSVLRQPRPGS

[13] = biological target: T3, Corticotropin-releasing factor receptor 2/Corticotropin-releasing factor-binding protein (Homo sapiens, UniProt P24387+Q13324); experiment: Dose Response confirmation of uHTS hits for small molecule antagonists of the CRF-binding protein and CRF-R2 receptor complex.; assay type: functional; conditions: read-out: IC50_Mean
T3 sequence (Q13324 whole entry): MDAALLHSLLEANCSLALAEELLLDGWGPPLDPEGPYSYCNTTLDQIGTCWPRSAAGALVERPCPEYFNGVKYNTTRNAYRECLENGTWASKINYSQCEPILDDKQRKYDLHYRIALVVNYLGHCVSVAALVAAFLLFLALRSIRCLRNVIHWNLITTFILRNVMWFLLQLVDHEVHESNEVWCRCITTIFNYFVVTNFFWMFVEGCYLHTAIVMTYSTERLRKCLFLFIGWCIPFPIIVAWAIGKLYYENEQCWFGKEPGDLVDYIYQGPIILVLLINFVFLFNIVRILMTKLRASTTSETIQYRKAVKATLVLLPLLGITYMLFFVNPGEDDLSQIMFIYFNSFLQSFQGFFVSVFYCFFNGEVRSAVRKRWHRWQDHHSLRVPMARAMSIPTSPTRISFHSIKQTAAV
T3 sequence (P24387 whole entry): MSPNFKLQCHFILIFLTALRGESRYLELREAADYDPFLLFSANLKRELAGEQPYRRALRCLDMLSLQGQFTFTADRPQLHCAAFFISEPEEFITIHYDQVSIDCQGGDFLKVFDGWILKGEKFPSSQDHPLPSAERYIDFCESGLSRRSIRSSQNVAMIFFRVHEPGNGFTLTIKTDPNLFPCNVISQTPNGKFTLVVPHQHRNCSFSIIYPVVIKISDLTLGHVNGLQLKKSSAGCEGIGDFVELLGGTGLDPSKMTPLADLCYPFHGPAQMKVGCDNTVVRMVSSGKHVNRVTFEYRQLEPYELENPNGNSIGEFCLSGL

[14] = biological target: T3, Corticotropin-releasing factor receptor 2/Corticotropin-releasing factor-binding protein; experiment: activators of CRF receptor 2 with binding protein – uHTS hits, confirmation (AID 602473); assay type: functional; conditions: read-out: EC50_Mean
[15] = blockers of CRF-binding protein–CRF-R2 complex – cell-based, uHTS hits, 384-well, dose response (AID 651639); assay type: functional, Homo sapiens; conditions: read-out: IC50_Mean
HEK293 [16] = experiment: cells; conditions: Homo sapiens
[17] = biological target: Beta-2 adrenergic receptor (Homo sapiens, UniProt P07550); experiment: ADRB2 activation measured by internalization – cell-based, FAP fluorogen, flow cytometry, cherry pick 1, dose response (AID 588763); assay type: functional
[18] = biological target: DNA damage-inducible transcript 3 protein (Mus musculus, UniProt P35639); assay type: functional, Cricetulus griseus
CHO = CHO cell viability loss, potency – luminescence, cytotoxicity control for TLR9-MyD88 binding inhibitor project, dose response (AID 588339); assay type: functional, cell-based, hamster; conditions: Cricetulus griseus;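 note: CHO cells stably coexpressing TLR9 and MyD88 fusions from primary screen; compound exposure lasted 48 hours before viability readout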
[19] = biological target: T4, High affinity choline transporter 1 (Homo sapiens, UniProt Q9GZV3); experiment: human choline transporter blockers, potency – cell-based, 5-point CRC, membrane potential dye, dose response (AID 504840); assay type: functional
T4 sequence (Q9GZV3 whole entry): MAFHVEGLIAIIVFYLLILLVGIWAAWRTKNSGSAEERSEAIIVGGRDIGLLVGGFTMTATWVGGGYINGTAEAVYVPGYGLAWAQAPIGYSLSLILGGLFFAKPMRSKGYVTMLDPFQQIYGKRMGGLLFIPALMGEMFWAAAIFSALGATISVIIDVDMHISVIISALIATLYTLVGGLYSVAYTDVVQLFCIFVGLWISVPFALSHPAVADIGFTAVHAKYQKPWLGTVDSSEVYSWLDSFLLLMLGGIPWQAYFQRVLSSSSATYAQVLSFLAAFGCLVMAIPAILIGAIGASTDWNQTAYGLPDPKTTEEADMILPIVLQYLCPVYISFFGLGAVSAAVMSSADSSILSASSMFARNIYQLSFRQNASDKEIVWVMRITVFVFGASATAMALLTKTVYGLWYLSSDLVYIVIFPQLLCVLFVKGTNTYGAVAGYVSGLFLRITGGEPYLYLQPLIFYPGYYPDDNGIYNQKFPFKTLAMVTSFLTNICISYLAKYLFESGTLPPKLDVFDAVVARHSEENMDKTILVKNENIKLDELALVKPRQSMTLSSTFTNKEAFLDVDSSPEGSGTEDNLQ

Beta Lactamase = Beta Lactamase (Pseudomonas aeruginosa, UniProt Q932Y6); experiment: BLA reporter interference, concentration series – BLA reporter cells, FRET fluorescence, artefact control for TLR9-MyD88 binding inhibitor project, dose response (AID 588341); assay type: cell-based;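 note: cell based assay in CHO-K1 cells stably expressing beta-lactamase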
[20] = reduction of Shn3 3'UTR-driven luciferase in osteoblasts – cell-based, Clone20 osteoblasts, firefly luciferase, cherry-picked, dose response (AID 624132); assay type: functional;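 note: firefly luciferase luminescence from reporter carrying the Shn3 3'UTR in osteoblasts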
[21] = loss of viability in HepG2 cells – cell-based, CellTiter-Glo, cherry-picked, cytotoxicity control for Shn3 inhibitor project, dose response (AID 624134); assay type: functional
[22] = non-specific 3'UTR reporter inhibition in Clone20-Shn3RL – cell-based, Renilla luciferase, cherry-picked, counter-screen for Shn3 inhibitor project, dose response (AID 624133); assay type: functional
Vero = experiment: Vero E6 cell cytotoxicity, dose response, cytotoxicity control (AID 540298); assay type: functional; conditions: Chlorocebus sabaeus
MDCK [23] = experiment: MDCK cell cytotoxicity, dose response, cytotoxicity control (AID 540296); assay type: functional; conditions: Canis lupus familiaris
MDCK [24] = experiment: antiviral activity against H1N1 influenza, dose response, cell-based, strain KY136 (AID 540257); assay type: functional; conditions: Canis lupus familiaris

Sequence of Nucleotide-binding oligomerization domain-containing protein 2 (Q9HC29 whole entry, the tested form may be a part): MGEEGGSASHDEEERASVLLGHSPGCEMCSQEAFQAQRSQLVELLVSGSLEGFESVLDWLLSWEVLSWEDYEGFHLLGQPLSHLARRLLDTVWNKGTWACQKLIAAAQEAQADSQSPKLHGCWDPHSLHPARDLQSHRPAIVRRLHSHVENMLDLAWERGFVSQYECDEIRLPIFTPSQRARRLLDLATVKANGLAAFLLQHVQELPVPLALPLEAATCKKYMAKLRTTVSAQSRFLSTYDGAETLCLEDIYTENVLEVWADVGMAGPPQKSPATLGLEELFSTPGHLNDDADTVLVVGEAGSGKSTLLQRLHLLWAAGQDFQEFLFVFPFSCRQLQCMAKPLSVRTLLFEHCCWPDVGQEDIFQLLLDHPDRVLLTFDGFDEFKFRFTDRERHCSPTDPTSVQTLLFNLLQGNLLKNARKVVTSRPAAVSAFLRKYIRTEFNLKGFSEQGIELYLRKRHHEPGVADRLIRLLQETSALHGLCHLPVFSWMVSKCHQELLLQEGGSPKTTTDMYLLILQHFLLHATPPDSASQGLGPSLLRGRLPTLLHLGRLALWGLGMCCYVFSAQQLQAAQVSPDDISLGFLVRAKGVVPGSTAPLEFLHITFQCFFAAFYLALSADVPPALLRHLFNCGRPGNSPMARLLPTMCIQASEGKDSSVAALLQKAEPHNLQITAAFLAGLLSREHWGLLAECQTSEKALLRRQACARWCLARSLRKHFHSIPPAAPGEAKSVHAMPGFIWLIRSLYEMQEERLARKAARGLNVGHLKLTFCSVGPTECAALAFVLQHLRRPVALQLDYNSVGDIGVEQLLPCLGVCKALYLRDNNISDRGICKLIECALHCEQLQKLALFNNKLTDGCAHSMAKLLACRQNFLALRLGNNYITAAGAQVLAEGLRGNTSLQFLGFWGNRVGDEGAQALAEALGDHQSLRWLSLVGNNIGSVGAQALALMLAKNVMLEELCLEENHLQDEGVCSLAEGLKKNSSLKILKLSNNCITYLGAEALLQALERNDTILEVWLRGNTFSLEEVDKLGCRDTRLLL
Sequence of Tumor necrosis factor (P01375 whole entry, the tested form may be a part): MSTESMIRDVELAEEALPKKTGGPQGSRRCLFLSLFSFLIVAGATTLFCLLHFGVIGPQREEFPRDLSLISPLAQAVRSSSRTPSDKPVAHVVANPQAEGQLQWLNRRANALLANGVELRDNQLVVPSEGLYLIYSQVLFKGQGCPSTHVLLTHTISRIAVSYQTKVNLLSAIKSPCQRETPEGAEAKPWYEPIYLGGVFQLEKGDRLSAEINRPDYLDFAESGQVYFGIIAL
Sequence of Serine/threonine-protein phosphatase (B9W6M3 whole entry): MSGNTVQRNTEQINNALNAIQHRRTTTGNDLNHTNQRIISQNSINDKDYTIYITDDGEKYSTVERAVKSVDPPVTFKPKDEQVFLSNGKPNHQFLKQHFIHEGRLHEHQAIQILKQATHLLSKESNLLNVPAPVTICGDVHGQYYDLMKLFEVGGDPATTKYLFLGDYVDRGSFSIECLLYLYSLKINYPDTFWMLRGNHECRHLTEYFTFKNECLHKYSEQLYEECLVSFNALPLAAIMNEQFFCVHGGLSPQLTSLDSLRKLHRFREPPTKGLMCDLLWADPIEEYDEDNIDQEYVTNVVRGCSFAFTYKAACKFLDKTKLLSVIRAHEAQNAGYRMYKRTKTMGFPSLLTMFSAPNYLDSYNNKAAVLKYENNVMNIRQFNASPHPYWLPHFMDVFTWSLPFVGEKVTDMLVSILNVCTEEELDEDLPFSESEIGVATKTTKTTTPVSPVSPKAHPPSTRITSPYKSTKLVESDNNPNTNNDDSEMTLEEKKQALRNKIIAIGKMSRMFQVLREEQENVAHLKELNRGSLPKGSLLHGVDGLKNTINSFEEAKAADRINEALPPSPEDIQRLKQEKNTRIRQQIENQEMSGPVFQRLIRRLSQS
Sequence of DNA damage-inducible transcript 3 protein (P35639 whole entry, the tested form may be a part): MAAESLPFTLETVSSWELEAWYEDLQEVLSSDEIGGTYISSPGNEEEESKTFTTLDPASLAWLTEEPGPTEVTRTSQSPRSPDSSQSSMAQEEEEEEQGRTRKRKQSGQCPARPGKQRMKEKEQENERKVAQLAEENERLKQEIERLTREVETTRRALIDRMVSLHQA
Sequence of Beta Lactamase (Q932Y6 whole entry): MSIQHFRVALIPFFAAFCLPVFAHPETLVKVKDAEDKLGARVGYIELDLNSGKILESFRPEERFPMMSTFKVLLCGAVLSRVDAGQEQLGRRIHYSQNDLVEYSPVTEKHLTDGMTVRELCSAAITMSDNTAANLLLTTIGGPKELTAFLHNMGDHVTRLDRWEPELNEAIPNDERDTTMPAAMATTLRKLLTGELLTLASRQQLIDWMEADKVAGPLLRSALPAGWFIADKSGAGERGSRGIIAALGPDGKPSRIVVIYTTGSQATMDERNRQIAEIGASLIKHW
Sequence of Beta-2 adrenergic receptor (P07550 whole entry): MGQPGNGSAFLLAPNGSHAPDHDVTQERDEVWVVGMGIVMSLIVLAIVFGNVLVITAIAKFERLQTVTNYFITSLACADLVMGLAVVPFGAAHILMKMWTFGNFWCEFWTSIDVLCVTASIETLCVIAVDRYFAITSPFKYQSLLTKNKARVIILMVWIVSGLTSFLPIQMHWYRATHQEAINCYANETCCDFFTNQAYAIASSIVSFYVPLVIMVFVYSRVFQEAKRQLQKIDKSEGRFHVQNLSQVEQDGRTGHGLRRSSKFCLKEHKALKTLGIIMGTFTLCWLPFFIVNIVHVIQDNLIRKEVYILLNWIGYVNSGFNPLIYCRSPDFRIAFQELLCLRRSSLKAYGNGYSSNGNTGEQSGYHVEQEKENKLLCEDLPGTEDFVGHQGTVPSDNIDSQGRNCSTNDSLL
Sequence of ATP-dependent molecular chaperone HSP82 (C4YTQ8 whole entry, the tested form may be a part): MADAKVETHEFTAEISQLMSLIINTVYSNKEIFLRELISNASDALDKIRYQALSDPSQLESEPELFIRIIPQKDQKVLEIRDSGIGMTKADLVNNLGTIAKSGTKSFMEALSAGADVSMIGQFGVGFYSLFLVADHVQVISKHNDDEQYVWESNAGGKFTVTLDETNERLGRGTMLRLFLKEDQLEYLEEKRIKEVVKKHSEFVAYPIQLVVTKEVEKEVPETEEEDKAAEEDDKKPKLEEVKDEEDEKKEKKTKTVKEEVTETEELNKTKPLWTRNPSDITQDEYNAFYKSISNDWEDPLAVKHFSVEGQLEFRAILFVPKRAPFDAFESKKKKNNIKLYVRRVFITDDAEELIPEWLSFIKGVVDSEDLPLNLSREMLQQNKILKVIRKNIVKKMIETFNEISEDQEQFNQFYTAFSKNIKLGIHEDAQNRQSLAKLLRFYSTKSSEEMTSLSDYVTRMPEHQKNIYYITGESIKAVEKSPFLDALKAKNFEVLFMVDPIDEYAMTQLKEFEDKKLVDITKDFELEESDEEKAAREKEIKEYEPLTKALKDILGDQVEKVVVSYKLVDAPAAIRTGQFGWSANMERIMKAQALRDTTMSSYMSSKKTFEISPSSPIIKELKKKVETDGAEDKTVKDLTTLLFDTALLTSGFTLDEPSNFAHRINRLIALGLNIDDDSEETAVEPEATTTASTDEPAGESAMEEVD
Sequence of Nucleotide-binding oligomerization domain-containing protein 1 (Q9Y239 whole entry, the tested form may be a part): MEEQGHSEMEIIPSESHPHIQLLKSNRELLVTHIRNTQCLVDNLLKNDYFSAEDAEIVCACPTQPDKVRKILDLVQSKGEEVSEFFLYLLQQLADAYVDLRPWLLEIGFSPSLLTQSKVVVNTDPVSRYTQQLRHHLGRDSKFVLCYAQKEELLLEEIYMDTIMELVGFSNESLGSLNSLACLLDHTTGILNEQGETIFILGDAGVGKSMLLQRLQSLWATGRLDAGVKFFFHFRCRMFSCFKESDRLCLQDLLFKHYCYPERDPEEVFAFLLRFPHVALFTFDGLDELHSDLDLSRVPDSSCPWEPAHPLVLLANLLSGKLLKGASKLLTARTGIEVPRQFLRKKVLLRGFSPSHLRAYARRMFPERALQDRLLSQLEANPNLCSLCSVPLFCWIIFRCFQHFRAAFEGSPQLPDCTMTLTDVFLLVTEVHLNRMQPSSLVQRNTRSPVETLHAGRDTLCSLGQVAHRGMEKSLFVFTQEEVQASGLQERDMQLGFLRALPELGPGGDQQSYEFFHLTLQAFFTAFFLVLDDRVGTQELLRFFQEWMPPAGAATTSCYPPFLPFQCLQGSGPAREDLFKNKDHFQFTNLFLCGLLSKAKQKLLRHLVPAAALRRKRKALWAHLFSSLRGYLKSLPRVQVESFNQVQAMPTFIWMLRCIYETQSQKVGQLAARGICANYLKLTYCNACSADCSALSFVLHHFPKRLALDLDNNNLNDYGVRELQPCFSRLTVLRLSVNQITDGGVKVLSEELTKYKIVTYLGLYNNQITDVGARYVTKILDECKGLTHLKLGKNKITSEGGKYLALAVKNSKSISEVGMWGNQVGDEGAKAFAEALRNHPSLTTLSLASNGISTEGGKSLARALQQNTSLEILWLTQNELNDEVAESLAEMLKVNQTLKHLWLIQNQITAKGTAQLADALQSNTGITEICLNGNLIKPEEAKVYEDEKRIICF

O=[N+]([O-])c1ccc(O)c(Nc2ncnc3ccc(Br)cc23)c1
EC50 [1]: > 160 µM (inactive)
EC50 (HEK293 [2]): 2.64 µM (active)
EC50 [3]: 6.15 µM (active)
IC50 (HEK293 [4]): > 20 µM (inactive)
EC50 (Streptokinase A): > 150 µM (not active)
EC50 [5]: 0.429 µM (active)
IC50 (HEK293 [6]): > 20 µM (inactive)
IC50 (HEK293 [7]): 18.8 µM (inactive)
EC50 [8]: > 180 µM (inactive)
EC50 (Streptococcus): 46.2 µM (active)
IC50 (Tumor necrosis factor): 6.28 µM (active)
IC50 [9]: 2.15 µM (active)
IC50 [10]: 3.53 µM (active)
EC50 [11]: > 160 µM (inactive)
IC50 [12]: 5.46 µM (active)
IC50 [13]: 5.76 µM (active)
EC50 [14]: 5.78 µM (active)
IC50 [15]: > 20 µM (inactive)
IC50 (HEK293 [16]): > 20 µM (inactive)

COc1ccc(CN2CCC(Oc3ccc(C(=O)N4CCCCC4)cc3)CC2)cc1C
EC50 [17]: 25.3 µM (inactive)

CCOC(=O)c1nc(S(C)(=O)=O)ncc1Cl
Absolute IC50 (CHOP) [18]: 10 µM
IC50 (CHO): 5.62 µM (active)
IC50 [19]: 19.1 µM (active)
IC50 (Beta Lactamase): 22.4 µM (inactive)
AC50 [20]: 6.37 µM (active)
AC50 [21]: 35.4 µM (active)
AC50 [22]: 20.5 µM (active)

Cc1ccccc1NC(=O)/C(=C/c1ccco1)c1ccccc1
CC50 (Vero): > 40 µM (active)
CC50 (MDCK [23]): > 40 µM (active)
IC50 (MDCK [24]): 15.4 µM (active)

— ChEMBL document CHEMBL1201862, “PubChem BioAssay data set” (2004)
